Experimental data published in patent US11433013B2, “Peptide for preventing skin damage caused by air pollutants and for anti-aging, and use thereof” (CAREGEN CO., LTD., priority 2019, dated 2022).
No end group written: not given here.

Test system: CYP1A1
Assay: CYP1A1 gene expression by RT-PCR, HaCaT cells treated with pollutants
Type: cell-based, human
Description: In order to confirm an effect of inhibiting inflow of pollutants into the cells via another method, the cells were treated with TCDD, PM, and CSE, and expression levels of CYP1A1 and COX-2 were confirmed. When the activity of AhR is promoted by the pollutants such as TCDD, the AhR acts as a transcription factor and increases expressions of CYP1A1 and COX-2, and thus a degree of the inflow of the pollutants into the cells and whether the AhR is activated or not may be confirmed by measuring expression levels of CYP1A1 and COX-2 genes. TCDD, PM, and CSE were each used after mixing it with the peptide of the present invention and pre-reacting the mixture on a serum-free media for about 1 hour.
In order to confirm the results of the cells treated with TCDD, first, 78 passages of HaCaT cells were seeded in a 6-well plate at a cell density of 3×10^5/well and cultured for about 16 hours, and then, the culture solution was replaced with a serum-free media, and the resultant was treated with the pre-reacted mixture of TCDD and the peptide for about 2 hours. The treatment included TCDD at a concentration of about 0.1 μM and the peptide at concentrations of about 10 μM, about 50 μM, and about 100 μM, respectively. The negative control was not treated with the peptide but only treated with TCDD, and the positive control was treated with CH223191 at a concentration of about 10 μM and TCDD. The cells were reacted with the mixture for about 2 hours, and RNA was isolated from the resultant. After removing the culture solution, the plate on which the cells were cultured was treated with TRIzol (available from Thermo Fisher Scientific, USA), and a sample including RNA was obtained using a scraper. Then, the sample was treated with chloroform and centrifuged to obtain a supernatant. The supernatant was treated with isopropanol, centrifuged again, and RNA pellets at the bottom were confirmed. Next, the resultant was treated with 70% of ethanol to wash the pellets, and the pellets were sufficiently dried to isolate RNA. […]

SYSGVLFFLK [SEQ ID NO: 1, SYSGVLFFLK]
expression level of CYP1A1 (CSE about 2%, peptide about 10, 50, 100 μM, about 2 hours (FIG. 2C)): decreased as a concentration of the peptide increased
expression level of CYP1A1 (PM about 25 μg/cm^2, peptide about 10, 50, 100 μM, about 2 hours (FIG. 2B)): decreased as a concentration of the peptide increased
expression level of CYP1A1 (TCDD about 0.1 μM, peptide about 10, 50, 100 μM, about 2 hours (FIG. 2A)): decreased as a concentration of the peptide increased
